One series concerns retina. As to conditions: in vivo; cited from earlier work.
For the next series, the system named is macular degeneration. Conditions: general anti-oxidants; cited from earlier work.
Series [1] deals with animals such as birds or fish. As to the kind of experiment: Feeding of F. multivorum cell paste to animals such as birds or fish. The class given is in vivo. Conditions: oral, cell paste of F. multivorum cells. The source says: Although this option has not yet been fully evaluated, it is possible that the Flavobacterium multivorum cells themselves, in intact form and possibly even in a viable state, may be suitable for direct ingestion by humans. A substantial number of human foods (including cheese, yogurt, beer, etc.) contain viable or killed-but-intact microbial cells, and there is no known pathogenicity associated with the F. multivorum cells isolated by Applied Food Biotechnology, Inc. They were isolated from a relatively cold artesian waterway, and since they are adapted to living in cold water, they cannot survive or reproduce well at temperatures inside the human body. […] When fed directly in the form of a cell paste to animals such as birds or fish, these cells appear to be well-suited as delivery vehicles for zeaxanthin.

For another series, the system named is chickens. As to conditions: cited from earlier work.
The nature of the next series: physchem. Conditions: dry powder.
The conditions of series [2]: di Mascio et al 1989; among known carotenoids; cited from earlier work.

Source text for physchem: After roughly six months of storage in a relatively unprotected state (usually under normal refrigeration with moderately frequent removal; without containing any antioxidants, and without taking any precautions to prevent contact by atmospheric oxygen), a sample of the zeaxanthin preparation was sent for stereoisomeric analysis to Prof.

`CC1=C(/C=C/C(C)=C/C=C/C(C)=C/C=C/C=C(C)/C=C/C=C(C)/C=C/C2=C(C)C(=O)CCC2(C)C)C(C)(C)CCC1=O` [Canthaxanthin]: the retinal toxicity result in the series with retina is on record as “has been shown to cause retinal maculopathy”. In the case of `CC1=C(/C=C/C(C)=C/C=C/C(C)=C/CO)C(C)(C)CCC1` [Retinol (Vit. A), Retinol], in the series with macular degeneration, the “benefit in the retina against macular degeneration” value (“benefit in the retina” for short) is “very limited”.

What is called amount remaining is what is left of the initial amount, in per cent. Regarding `CC1=C(/C=C/C(C)=C/C=C/C(C)=C/C=C/C=C(C)/C=C/C=C(C)/C=C/C2=C(C)C[C@@H](O)CC2(C)C)C(C)(C)C[C@H](O)C1` [Zeaxanthin, 3,3'-dihydroxy-β-β-carotene], in series [1], the “absorption and tissue deposition of zeaxanthin” value was “absorbed into the bloodstream and deposited into various tissues at expected and appropriate tissue locations”. In the series on chickens (Flavobacter cells (ATCC 21081, 21588) with their zeaxanthin fed, U.S. Pat. No. 3,891,504), the coloration of chickens result is reported as “caused suitable coloration”. For the same compound, in the series with chickens (per-weight basis, chicken skin and egg yolks), the “coloring potency relative to lutein” value is 2-3 times. Moreover, in the series with chickens (per-weight basis), the “effectiveness in imparting color to animal flesh or chicken yolks relative to lutein” value is reported as “several times more effective”. Also, in the series “physchem”, the share remaining at 4380 h was 92%. In the case of `Cc1c(C)c2c(c(C)c1O)CCC(C)(CCCC(C)CCCC(C)CCCC(C)C)O2` (stereo not drawn) [alpha-Tocopherol], the “benefit in the retina” value in the series with macular degeneration is “very limited”. As to `CC(C)=CCC/C(C)=C/C=C/C(C)=C/C=C/C(C)=C/C=C/C=C(C)/C=C/C=C(C)/C=C/C=C(\C)CCC=C(C)C` [lycopene], the singlet oxygen quenching result in series [2] is “best singlet oxygen quencher of all known carotenoids”. Turning to `CC1=C(/C=C/C(C)=C/C=C/C(C)=C/C=C/C=C(C)/C=C/C=C(C)/C=C/C2=C(C)CCCC2(C)C)C(C)(C)CCC1` [β-Carotene, β-carotene], in the series with macular degeneration, the “benefit in the retina” value is reported as “very limited”.

The record behind these values is patent publication US5747544A, “Method of using pure 3R-3'R stereoisomer of zeaxanthin to treat or prevent retinal degeneration in humans” (priority 1995, dated 1998).
